Data on 19 compounds can be found in patent publication US20260217708A1, “FUSED BENZAZEPINE DERIVATIVES FOR USE IN THE TREATMENT OF CANCER AND EPILEPSY” (UCB BIOPHARMA SRL, priority 2023, published 2026).

Each structure is given as a SMILES string.

In experiment [1] the target is T1, system Xc^− (Homo sapiens, UniProt Q9UPY5).
T1 sequence (Q9UPY5 1-501): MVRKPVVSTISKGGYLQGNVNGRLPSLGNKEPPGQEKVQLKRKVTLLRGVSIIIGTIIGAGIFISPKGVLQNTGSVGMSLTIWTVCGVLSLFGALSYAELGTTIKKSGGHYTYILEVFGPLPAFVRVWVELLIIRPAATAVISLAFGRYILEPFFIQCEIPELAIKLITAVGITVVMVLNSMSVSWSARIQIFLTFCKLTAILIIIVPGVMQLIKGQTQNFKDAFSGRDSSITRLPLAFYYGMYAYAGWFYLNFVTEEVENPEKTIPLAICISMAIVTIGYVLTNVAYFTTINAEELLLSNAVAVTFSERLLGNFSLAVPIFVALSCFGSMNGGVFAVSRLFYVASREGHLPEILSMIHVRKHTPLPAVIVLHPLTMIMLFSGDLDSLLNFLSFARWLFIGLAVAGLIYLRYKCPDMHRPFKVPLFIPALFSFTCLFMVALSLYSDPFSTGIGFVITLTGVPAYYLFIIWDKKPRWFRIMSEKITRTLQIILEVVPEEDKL
T1 sequence (P08195 1-529 partner): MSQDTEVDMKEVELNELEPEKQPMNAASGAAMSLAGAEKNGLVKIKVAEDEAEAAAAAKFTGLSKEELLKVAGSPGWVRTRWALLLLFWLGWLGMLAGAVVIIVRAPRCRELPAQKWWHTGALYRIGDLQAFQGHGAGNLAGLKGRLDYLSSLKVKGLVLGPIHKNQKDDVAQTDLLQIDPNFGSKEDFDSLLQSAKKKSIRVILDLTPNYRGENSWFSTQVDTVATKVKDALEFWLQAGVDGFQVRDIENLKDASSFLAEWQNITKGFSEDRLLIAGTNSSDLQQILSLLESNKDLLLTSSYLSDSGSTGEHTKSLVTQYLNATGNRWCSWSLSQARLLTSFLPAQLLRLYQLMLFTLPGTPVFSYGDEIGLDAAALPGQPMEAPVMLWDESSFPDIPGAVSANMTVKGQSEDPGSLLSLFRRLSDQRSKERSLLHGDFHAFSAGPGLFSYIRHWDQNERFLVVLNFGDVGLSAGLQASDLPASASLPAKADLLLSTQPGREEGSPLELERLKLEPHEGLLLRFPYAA
Description: Cystine-induced glutamate release assay. The settings on record: H4 cells, sodium-free HEPES buffer, 50 μM L-Cystine, 2 hours, Amplex Red glutamate readout; read-out: pIC50 Cystine-induced glutamate release assay (converted). Also on record: endogenous in cells; host or cells: H4 cells. Format: cell-based. The gist of the method: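 IC50 (reported as pIC50) normalized to DMSO 1% and Erastin 50 μM controls, from Amplex Red fluorescence of glutamate exported into supernatant. H4 cells were washed into sodium-free buffer to exclude EAAT transport, then given compound with 50 μM L-cystine for 2 h in the incubator.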

For experiment [2], the target named is T1, system Xc^−. Description: [^14C]L-Cystine uptake assay. Format: cell-based. The settings on record: H4 cells, sodium-free HEPES buffer, 0.5 μM L-[14C]Cystine and 4.5 μM L-Cystine, 1 hour at 37° C.; read-out: pIC50 [^14C] L-Cystine uptake assay (converted). Also on record: endogenous in cells; host or cells: H4 cells. The gist of the method:
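Compound effect is given as pIC50, taken between controls of 1% DMSO and 50 μM Erastin. Human H4 cells were pretreated 15 min with compound in sodium-free buffer, then took up 0.5 μM [14C]cystine with 4.5 μM cold cystine for 1 hour at 37° C, read by scintillation proximity counting.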

In the case of `Cc1cc2c(c(Cl)n1)-c1cncnc1C(C)C(=O)N2CC(=O)Nc1ccc(C(F)(F)F)cc1` (centres unmarked) [#163, 2-(15-chloro-8,13-dimethyl-9-oxo-4,6,10,14-tetrazatricyclo[9.4.0.0^2,7]pentadeca-1(11),2(7),3,5,12,14-hexaen-10-yl)-N-[4-(trifluoromethyl)phenyl]acetamide], the IC50 at system Xc^− [1] and at system Xc^− [2] was 15.8 to 39.8 nM in each case.

With `COc1ccc2c(c1)-c1c(cc(C)nc1Cl)N(CC(=O)Nc1ccc(C(F)(F)F)cc1)C(=O)C2C` (centres unmarked) [#164, 2-(1-chloro-10-methoxy-3,7-dimethyl-6-oxo-7H-pyrido[4,3-d][3]benzazepin-5-yl)-N-[4-(trifluoromethyl)phenyl]acetamide], the IC50 is 100 to 501 nM on system Xc^− [1] and 39.8 to 100 nM on system Xc^− [2].

Regarding `Cc1cc2c(c(F)n1)-c1cccc(CO)c1CC(=O)N2CC(=O)Nc1ccc(C(F)(F)F)cc1` [#165, 2-[1-fluoro-8-(hydroxymethyl)-3-methyl-6-oxo-7H-pyrido[4,3-d][3]benzazepin-5-yl]-N-[4-(trifluoromethyl)phenyl]acetamide], the IC50 at system Xc^− [1] and at system Xc^− [2] was 100 to 501 nM each time.

Turning to `Cc1cc2c(n(C)c1=O)-c1ccccc1N(C)C(=O)N2CC(=O)Nc1ccc(Cl)c(F)c1` [#166, N-(4-chloro-3-fluoro-phenyl)-2-(1,3,7-trimethyl-2,6-dioxo-pyrido[3,2-d][1,3]benzodiazepin-5-yl)acetamide], the IC50 on system Xc^− [1] and at system Xc^− [2] was 15.8 to 39.8 nM throughout.

For the compound `Cc1nc(C#N)cc2c1-c1cccnc1CC(=O)N2CC(=O)Nc1ccc(C(F)(F)F)cc1` [#167, 2-(5-cyano-3-methyl-9-oxo-4,8,12-triazatricyclo[9.4.0.0^2,7]pentadeca-1(11),2(7),3,5,12,14-hexaen-8-yl)-N-[4-(trifluoromethyl)phenyl]acetamide], the IC50 is 39.8 to 100 nM on system Xc^− [1] and 15.8 to 39.8 nM at system Xc^− [2].

Regarding `O=C(CN1C(=O)Cc2ncccc2-c2c1cc(Cl)nc2Cl)Nc1ccc(C(F)(F)F)cc1` [#168, 2-(3,5-dichloro-9-oxo-4,8,12-triazatricyclo[9.4.0.0^2,7]pentadeca-1(11),2(7),3,5,12,14-hexaen-8-yl)-N-[4-(trifluoromethyl)phenyl]acetamide], the IC50 at system Xc^− [1] was 100 to 501 nM; on system Xc^− [2] it was 15.8 to 39.8 nM.

As for `CNc1cc2c(c(Cl)n1)-c1cccnc1CC(=O)N2CC(=O)Nc1ccc(C(F)(F)F)cc1` [#169, 2-[3-chloro-5-(methylamino)-9-oxo-4,8,12-triazatricyclo[9.4.0.0^2,7]pentadeca-1(11),2(7),3,5,12,14-hexaen-8-yl]-N-[4-(trifluoromethyl)phenyl]acetamide], the IC50 at system Xc^− [1] is 100 to 501 nM; on system Xc^− [2] it was 15.8 to 39.8 nM.

Consider `CN1CC(c2cc3c(c(Cl)n2)-c2cccnc2CC(=O)N3CC(=O)Nc2ccc(C(F)(F)F)cc2)C1` [#170, 2-[3-chloro-5-(1-methylazetidin-3-yl)-9-oxo-4,8,12-triazatricyclo[9.4.0.0^2,7]pentadeca-1(11),2(7),3,5,12,14-hexaen-8-yl]-N-[4-(trifluoromethyl)phenyl]acetamide], for which the IC50 at system Xc^− [1] and at system Xc^− [2] was 39.8 to 100 nM in each case.

In the case of `Cc1cc2c(c(F)n1)-c1cncc(F)c1C(C)C(=O)N2CC(=O)Nc1ccc(C(F)(F)F)cc1` (centres unmarked) [#171, 2-(3,12-difluoro-5,10-dimethyl-9-oxo-4,8,14-triazatricyclo[9.4.0.0^2,7]pentadeca-1(11),2(7),3,5,12,14-hexaen-8-yl)-N-[4-(trifluoromethyl)phenyl]acetamide], the values for the IC50 on system Xc^− [1] and at system Xc^− [2] were 39.8 to 100 nM and 15.8 to 39.8 nM, respectively.

As to `Cc1cc2c(c(F)n1)-c1ccnnc1C(C)C(=O)N2CC(=O)Nc1ccc(C(F)(F)F)cc1` (centres unmarked) [#172, 2-(3-fluoro-5,10-dimethyl-9-oxo-4,8,12,13-tetrazatricyclo[9.4.0.0^2,7]pentadeca-1(11),2(7),3,5,12,14-hexaen-8-yl)-N-[4-(trifluoromethyl)phenyl]acetamide], the IC50 on system Xc^− [1] and on system Xc^− [2] was 15.8 to 39.8 nM throughout.

As for `Cc1cc2c(c(Cl)n1)-c1ccnnc1C(C)C(=O)N2CC(=O)Nc1ccc(C(F)(F)F)cc1` (centres unmarked) [#173, 2-(3-chloro-5,10-dimethyl-9-oxo-4,8,12,13-tetrazatricyclo[9.4.0.0^2,7]pentadeca-1(11),2(7),3,5,12,14-hexaen-8-yl)-N-[4-(trifluoromethyl)phenyl]acetamide], the IC50 at system Xc^− [1] is 15.8 to 39.8 nM; on system Xc^− [2], below 15.8 nM.

`Cc1cc2c(c(=O)n1C1CC1)-c1cccnc1C(C)C(=O)N2CC(=O)Nc1ccc(Cl)c(F)c1` (centres unmarked) [#179, N-(4-chloro-3-fluoro-phenyl)-2-(4-cyclopropyl-5,10-dimethyl-3,9-dioxo-4,8,12-triazatricyclo[9.4.0.0^2,7]pentadeca-1(11),2(7),5,12,14-pentaen-8-yl)acetamide]: the IC50 at system Xc^− [1] is 39.8 to 100 nM; at system Xc^− [2] it was 15.8 to 39.8 nM.

Take `Cc1cc2c(c(F)n1)-c1cnccc1C(C)C(=O)N2CC(=O)Nc1ccc(C(F)(F)F)cc1` (centres unmarked) [#180, 2-(3-fluoro-5,10-dimethyl-9-oxo-4,8,14-triazatricyclo[9.4.0.0^2,7]pentadeca-1(11),2(7),3,5,12,14-hexaen-8-yl)-N-[4-(trifluoromethyl)phenyl]acetamide]: the figures for the IC50 on system Xc^− [1] and at system Xc^− [2] were 39.8 to 100 nM and 15.8 to 39.8 nM, respectively.

For `Cc1cc2c(n(C)c1=O)-c1ccc(Cl)cc1C(C)C(=O)N2CC(=O)Nc1ccc(Cl)c(F)c1` (centres unmarked) [#181, N-(4-chloro-3-fluoro-phenyl)-2-(9-chloro-1,3,7-trimethyl-2,6-dioxo-7H-pyrido[3,2-d][3]benzazepin-5-yl)acetamide], the IC50 at system Xc^− [1] is 15.8 to 39.8 nM; at system Xc^− [2], below 15.8 nM.

In the case of `COc1cc2c(c(F)n1)-c1cccnc1C(C)C(=O)N2CC(=O)Nc1ccc(C(F)(F)F)cc1` (centres unmarked) [#182, 2-(3-fluoro-5-methoxy-10-methyl-9-oxo-4,8,12-triazatricyclo[9.4.0.0^2,7]pentadeca-1(11),2(7),3,5,12,14-hexaen-8-yl)-N-[4-(trifluoromethyl)phenyl]acetamide], the IC50 at system Xc^− [1] and at system Xc^− [2] was 15.8 to 39.8 nM each time.

Turning to `Cc1cc2c(c(F)n1)-c1cc[nH]c(=O)c1CC(=O)N2CC(=O)Nc1ccc(C(F)(F)F)cc1` [#183, 2-(3-fluoro-5-methyl-9,12-dioxo-4,8,13-triazatricyclo[9.4.0.0^2,7]pentadeca-1(11),2(7),3,5,14-pentaen-8-yl)-N-[4-(trifluoromethyl)phenyl]acetamide], the IC50 at system Xc^− [1] was 100 to 501 nM; at system Xc^− [2] it was 39.8 to 100 nM.

`CC1C(=O)N(CC(=O)Nc2ccc(C(F)(F)F)cc2)c2cc(F)c(=O)n(C)c2-c2cccnc21` (centres unmarked) [#185, 2-(5-fluoro-3,10-dimethyl-4,9-dioxo-3,8,12-triazatricyclo[9.4.0.0^2,7]pentadeca-1(11),2(7),5,12,14-pentaen-8-yl)-N-[4-(trifluoromethyl)phenyl]acetamide]: the IC50 at system Xc^− [1] and on system Xc^− [2] was 39.8 to 100 nM in each case.

On to `Cc1cc2c(c(F)n1)-c1cncc(F)c1CC(=O)N2CC(=O)Nc1ccc(C(F)(F)F)cc1` [#212, 2-(3,12-difluoro-5-methyl-9-oxo-4,8,14-triazatricyclo[9.4.0.0^2,7]pentadeca-1(11),2(7),3,5,12,14-hexaen-8-yl)-N-[4-(trifluoromethyl)phenyl]acetamide], for which the IC50 at system Xc^− [1] was 100 to 501 nM; on system Xc^− [2], 15.8 to 39.8 nM.

`Cc1cc2c(c(F)n1)-c1cccnc1[C@@H](C)C(=O)N2CC(=O)Nc1ccc(F)cc1` [#233, 2-[(10R)-3-fluoro-5,10-dimethyl-9-oxo-4,8,12-triazatricyclo[9.4.0.0^2,7]pentadeca-1(15),2,4,6,11,13-hexaen-8-yl]-N-(4-fluorophenyl)acetamide]: the IC50 at system Xc^− [1] was 39.8 to 100 nM; on system Xc^− [2], 15.8 to 39.8 nM.
